# Key:
# [1] = system: BA/F3 cells expressing PDGFR; test: Cell viability by MTS assay (MTS Assay 1); format: cell-based; details: for IC50: Mus musculus, BaF3, read-out: MTS Assay 1: concentration of compound required to reduce cell viability to 50%; for Activity compared to the imatinib and quizartinib controls (cell viability): MTS assay, FIGS. 2 and 3
# Experimental: FIG. 2 illustrates the effect of the compounds of Examples 1 to 4 on Ba/F3 cells expressing PDGFR. Results for imatinib and quizartinib are provided as positive controls.
# (§1) The effect of the compounds on cell viability were determined using MTS assay. MTS Cell Proliferation Assay Kit is a colorimetric method for sensitive quantification of viable cells in proliferation and cytotoxicity assay. The method is based on the reduction of MTS tetrazolium compound by viable cells to generate a colored formazan product that is soluble in cell culture media. BA/F3 cells expressing the receptor tyrosine kinase (either PDGFR [MTS Assay 1] or Flt3 [MTS Assay 2]) were cultured in standard culture conditions in a 96-well microtiter plate (final volume of 200 μl/well) in the absence or presence of the compound to be tested and were incubated for 20-48 hrs. MTS Reagent (20 μl/well) was added into each well & incubated for 0.5-4 hours at 37° C. in standard culture conditions. Absorbance at 490 nm was recorded using a plate reader.
# (§2) Results are shown in FIGS. 2 and 3, and Table 2 (where IC50 indicates the concentration of compound required to reduce cell viability to 50%).
# (§3) For the MTS Assay, the result indicates the concentration of compound required to reduce cell viability to 50%.
# [2] = target: T1, BA/F3 cells expressing Flt3 (Homo sapiens, UniProt P36888, cells depend on it, form not given); test: Cell viability by MTS assay (MTS Assay 2); format: cell-based; details: BA/F3 cells expressing Flt3, 20-48 hrs; symbol after the slash; read-out: MTS Assay 2: concentration of compound required to reduce cell viability to 50%
# T1 sequence (P36888 1-993): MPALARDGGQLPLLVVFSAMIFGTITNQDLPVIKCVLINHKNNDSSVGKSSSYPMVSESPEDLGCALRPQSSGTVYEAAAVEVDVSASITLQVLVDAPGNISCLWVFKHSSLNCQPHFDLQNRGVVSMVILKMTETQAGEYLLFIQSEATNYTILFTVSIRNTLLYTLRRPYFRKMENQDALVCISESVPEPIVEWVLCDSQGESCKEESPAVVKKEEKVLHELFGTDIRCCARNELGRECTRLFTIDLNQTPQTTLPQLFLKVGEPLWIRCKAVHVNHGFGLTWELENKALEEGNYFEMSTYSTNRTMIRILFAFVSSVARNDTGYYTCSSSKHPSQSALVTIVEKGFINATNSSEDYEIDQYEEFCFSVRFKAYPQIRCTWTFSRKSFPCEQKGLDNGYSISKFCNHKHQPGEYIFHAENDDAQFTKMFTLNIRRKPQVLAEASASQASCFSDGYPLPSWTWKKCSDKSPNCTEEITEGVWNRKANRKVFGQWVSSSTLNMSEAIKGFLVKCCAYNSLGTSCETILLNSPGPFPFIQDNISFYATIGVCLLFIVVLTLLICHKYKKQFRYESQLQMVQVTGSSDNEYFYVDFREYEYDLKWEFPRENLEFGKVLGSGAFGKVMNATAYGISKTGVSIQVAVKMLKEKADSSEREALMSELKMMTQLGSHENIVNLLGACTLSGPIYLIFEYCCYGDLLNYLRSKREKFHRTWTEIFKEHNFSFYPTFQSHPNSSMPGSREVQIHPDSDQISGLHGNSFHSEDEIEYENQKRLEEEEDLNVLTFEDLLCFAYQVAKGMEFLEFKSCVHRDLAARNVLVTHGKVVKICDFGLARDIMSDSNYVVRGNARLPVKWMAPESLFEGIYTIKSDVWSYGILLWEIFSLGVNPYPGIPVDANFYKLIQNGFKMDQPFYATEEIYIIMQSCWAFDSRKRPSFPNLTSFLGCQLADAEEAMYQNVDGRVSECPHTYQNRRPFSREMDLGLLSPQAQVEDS
# Experimental: FIG. 3 illustrates the effect of the compounds of Examples 5 to 7 on Ba/F3 cells expressing Flt3 kinase. Results for imatinib (negative control) and quizartinib (positive control) are also provided.
# as §1, §2, §3
# [3] = target: PDGFR-β (Homo sapiens, UniProt P09619); test: In vitro kinase assay ([γ-33P]-ATP); format: biochemical; details: ATP at apparent ATP-Km of the kinase
# Experimental: (§4) To determine the inhibitory activity of compounds, in vitro kinase assays were performed on respective enzymes purified from Sf9 insect cells or E. coli as recombinant GST-fusion proteins or His-tagged proteins.
# [4] = target: CDK19 (Homo sapiens, UniProt Q9BWU1); test: In vitro kinase assay ([γ-33P]-ATP); format: biochemical; details: ATP at apparent ATP-Km of the kinase
# Experimental: as §4
# [5] = target: CDK8 (Homo sapiens, UniProt P49336); test: In vitro kinase assay ([γ-33P]-ATP); format: biochemical; details: ATP at apparent ATP-Km of the kinase
# Experimental: as §4
# [6] = target: VEGFR-2 (Homo sapiens, UniProt P35968); test: In vitro kinase assay ([γ-33P]-ATP); format: biochemical; details: ATP at apparent ATP-Km of the kinase
# Experimental: as §4
# [7] = target: T2, Flt3 (Homo sapiens, UniProt P36888); test: In vitro kinase assay ([γ-33P]-ATP); format: biochemical; details: ATP at apparent ATP-Km of the kinase
# T2 sequence (P36888 27-993): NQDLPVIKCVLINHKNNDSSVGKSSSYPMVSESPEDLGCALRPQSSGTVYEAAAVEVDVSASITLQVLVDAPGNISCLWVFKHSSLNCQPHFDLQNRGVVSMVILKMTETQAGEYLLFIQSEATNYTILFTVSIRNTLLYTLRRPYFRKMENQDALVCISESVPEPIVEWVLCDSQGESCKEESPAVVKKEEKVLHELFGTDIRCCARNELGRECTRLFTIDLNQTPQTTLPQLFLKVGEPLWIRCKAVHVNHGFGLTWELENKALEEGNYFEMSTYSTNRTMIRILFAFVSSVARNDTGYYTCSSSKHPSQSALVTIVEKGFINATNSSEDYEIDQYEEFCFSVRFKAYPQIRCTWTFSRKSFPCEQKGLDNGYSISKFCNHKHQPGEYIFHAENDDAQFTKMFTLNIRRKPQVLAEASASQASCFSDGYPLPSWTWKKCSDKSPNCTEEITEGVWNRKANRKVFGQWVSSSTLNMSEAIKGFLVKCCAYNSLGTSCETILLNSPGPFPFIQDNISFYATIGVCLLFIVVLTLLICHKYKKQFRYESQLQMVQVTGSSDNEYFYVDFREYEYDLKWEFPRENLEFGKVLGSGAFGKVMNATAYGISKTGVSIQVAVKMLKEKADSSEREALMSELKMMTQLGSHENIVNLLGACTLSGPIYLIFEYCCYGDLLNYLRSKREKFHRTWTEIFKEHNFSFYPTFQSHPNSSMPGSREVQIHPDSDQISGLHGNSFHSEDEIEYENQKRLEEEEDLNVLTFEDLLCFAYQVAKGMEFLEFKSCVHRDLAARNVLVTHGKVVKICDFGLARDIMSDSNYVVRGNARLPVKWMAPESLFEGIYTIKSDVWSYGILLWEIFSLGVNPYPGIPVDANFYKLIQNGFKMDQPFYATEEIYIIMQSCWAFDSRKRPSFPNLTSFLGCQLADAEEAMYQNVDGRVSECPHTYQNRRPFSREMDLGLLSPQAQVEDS
# Experimental: as §4
# [8] = target: PDGFR-α (Homo sapiens, UniProt P16234); test: In vitro kinase assay ([γ-33P]-ATP); format: biochemical; details: ATP at apparent ATP-Km of the kinase
# Experimental: as §4
# [9] = system: PDGFRβ signaling (PDGFRβ autophosphorylation, Shp2 phosphorylation) in HEK293 cells expressing human PDGFR; test: Western blot of PDGFRβ signaling in HEK293 cell line model; format: cell-based; details: 20 ng/ml PDGF, FIG. 1
# Experimental: FIG. 1 represents Western-blot analysis result of the compounds of Examples 1 and 2 in relation to inhibition of PDGFRβ and p-SHP2 signalling in HEK293 cells expressing PDGFRβ.
# Human Embryonic kidney cells (HEK293) were constructed to express human PDGFRWT under the control of constitutive CMV promoter. Cells were grown in the presence of 20 ng/ml PDGF (the ligand for the PDGFRβ) to activate the PDGFRβ. Different concentrations of the compounds of Examples 1 and 2 were added to study their effect on the PDGFRβ-mediated signaling. Autophosphorylation of PDGFRβ and Shp2 phosphorylation were monitored by Western blotting and were used as the markers for PDGFRβ signaling. β-Actin was used as an internal control.
# Chain of VEGFR-2 (P35968 20-1356): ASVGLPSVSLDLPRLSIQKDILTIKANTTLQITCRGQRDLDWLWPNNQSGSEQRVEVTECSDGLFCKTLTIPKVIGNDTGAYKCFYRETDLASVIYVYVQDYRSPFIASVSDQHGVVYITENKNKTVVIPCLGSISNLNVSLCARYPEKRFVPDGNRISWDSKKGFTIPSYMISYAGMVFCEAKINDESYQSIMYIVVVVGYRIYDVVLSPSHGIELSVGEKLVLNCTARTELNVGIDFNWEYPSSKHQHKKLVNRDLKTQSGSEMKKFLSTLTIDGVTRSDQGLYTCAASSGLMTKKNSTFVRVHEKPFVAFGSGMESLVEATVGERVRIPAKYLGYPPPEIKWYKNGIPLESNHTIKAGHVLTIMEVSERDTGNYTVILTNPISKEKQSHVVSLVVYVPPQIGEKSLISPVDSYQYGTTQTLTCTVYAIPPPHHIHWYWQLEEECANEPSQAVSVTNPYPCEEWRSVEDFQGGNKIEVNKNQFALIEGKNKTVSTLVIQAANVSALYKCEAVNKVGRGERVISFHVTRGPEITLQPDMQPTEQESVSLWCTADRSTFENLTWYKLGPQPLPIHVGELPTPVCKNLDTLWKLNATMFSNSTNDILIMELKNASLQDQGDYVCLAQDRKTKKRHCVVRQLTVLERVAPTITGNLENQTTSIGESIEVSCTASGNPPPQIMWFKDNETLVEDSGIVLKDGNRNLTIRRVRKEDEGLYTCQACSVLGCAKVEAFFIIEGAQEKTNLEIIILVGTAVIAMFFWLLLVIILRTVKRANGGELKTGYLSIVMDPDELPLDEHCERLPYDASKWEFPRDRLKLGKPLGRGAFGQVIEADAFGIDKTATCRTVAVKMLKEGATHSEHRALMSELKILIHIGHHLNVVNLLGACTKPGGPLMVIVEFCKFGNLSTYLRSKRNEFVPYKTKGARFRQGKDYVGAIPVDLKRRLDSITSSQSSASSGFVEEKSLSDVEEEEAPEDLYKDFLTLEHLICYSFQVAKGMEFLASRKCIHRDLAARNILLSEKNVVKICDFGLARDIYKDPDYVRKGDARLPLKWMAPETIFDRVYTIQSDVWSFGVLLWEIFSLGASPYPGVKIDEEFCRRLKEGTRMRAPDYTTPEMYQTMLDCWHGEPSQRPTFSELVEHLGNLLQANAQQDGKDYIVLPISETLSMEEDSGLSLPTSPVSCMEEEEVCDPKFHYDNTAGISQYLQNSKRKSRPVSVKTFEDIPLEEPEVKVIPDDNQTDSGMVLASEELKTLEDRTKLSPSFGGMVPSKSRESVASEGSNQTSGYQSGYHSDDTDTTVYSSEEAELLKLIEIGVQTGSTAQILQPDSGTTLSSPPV
# Chain of CDK8 (P49336 whole entry): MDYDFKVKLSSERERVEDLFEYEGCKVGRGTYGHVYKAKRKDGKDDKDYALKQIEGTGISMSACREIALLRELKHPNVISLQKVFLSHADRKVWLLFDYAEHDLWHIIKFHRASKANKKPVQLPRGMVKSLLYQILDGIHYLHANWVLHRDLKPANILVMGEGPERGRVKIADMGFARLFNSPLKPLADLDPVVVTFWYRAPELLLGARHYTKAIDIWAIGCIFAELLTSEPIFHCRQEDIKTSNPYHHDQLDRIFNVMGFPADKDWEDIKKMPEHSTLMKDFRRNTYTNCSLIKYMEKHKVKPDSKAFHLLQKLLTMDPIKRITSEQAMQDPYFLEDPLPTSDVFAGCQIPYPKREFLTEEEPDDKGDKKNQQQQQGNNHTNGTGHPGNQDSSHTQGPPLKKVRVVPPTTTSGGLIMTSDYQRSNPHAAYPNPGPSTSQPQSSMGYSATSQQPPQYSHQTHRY
# Chain of CDK8 (P24863 whole entry partner): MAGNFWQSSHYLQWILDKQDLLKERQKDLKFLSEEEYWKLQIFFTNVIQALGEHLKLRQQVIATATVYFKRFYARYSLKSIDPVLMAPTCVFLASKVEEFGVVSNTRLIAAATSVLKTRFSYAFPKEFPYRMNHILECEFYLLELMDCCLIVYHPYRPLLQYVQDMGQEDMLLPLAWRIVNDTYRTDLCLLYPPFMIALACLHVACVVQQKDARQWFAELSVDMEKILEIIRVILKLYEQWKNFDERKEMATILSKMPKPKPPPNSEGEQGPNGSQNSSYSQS
# Chain of PDGFR-β (P09619 33-1106): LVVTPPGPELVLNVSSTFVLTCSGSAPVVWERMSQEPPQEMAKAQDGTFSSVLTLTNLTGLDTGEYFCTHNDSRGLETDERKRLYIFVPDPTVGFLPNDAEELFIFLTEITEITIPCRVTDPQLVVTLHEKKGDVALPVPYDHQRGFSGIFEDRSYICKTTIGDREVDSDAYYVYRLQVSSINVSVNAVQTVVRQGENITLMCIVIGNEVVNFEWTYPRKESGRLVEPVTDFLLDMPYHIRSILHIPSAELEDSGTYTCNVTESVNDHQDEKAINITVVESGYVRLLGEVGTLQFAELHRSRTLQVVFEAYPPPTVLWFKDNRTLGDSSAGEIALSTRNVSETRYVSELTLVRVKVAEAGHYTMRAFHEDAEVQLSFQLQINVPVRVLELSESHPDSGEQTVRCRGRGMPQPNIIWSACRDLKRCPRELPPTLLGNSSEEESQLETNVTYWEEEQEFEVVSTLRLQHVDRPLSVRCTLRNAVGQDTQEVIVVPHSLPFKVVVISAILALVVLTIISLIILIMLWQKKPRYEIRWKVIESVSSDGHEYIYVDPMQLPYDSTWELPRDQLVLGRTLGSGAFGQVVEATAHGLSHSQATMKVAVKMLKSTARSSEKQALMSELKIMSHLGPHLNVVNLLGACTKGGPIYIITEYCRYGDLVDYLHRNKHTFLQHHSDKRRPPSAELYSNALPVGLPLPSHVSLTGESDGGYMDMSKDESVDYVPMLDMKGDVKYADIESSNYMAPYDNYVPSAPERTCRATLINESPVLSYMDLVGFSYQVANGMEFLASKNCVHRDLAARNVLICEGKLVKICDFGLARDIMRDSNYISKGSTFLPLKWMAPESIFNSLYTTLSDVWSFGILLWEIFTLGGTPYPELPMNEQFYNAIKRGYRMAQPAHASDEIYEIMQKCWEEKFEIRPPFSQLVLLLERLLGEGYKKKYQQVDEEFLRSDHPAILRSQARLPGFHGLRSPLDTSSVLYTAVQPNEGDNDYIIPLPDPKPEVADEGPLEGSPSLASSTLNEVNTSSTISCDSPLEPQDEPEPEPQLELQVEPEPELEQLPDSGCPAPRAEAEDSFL
# Chain of PDGFR-α (P16234 24-1089): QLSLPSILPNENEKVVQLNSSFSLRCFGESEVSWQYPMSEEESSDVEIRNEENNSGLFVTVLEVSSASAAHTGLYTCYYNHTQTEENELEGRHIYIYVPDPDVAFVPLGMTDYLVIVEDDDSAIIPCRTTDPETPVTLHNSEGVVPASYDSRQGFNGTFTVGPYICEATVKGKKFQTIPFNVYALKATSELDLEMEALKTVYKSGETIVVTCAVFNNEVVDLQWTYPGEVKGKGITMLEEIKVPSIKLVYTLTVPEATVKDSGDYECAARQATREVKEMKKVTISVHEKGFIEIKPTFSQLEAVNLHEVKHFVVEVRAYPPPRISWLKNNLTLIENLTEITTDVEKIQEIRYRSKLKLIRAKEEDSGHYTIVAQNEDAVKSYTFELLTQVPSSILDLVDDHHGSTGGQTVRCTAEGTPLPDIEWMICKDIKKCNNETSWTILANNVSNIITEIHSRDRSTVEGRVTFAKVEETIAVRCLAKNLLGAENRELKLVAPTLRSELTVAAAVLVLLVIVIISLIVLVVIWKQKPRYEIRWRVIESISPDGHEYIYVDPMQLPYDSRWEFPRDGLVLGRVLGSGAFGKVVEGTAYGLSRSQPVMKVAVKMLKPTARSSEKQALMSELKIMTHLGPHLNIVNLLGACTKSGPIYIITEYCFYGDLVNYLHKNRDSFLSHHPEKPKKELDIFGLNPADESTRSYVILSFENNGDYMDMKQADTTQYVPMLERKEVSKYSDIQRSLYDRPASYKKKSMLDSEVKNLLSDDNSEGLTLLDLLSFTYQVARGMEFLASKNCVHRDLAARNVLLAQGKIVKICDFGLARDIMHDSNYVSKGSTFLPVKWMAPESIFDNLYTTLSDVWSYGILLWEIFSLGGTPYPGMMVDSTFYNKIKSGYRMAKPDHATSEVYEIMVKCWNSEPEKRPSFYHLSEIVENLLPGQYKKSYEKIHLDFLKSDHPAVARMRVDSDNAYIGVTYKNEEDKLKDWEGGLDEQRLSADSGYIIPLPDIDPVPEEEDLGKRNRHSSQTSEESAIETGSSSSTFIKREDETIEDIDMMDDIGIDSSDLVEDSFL
# Chain of CDK19 (Q9BWU1 whole entry): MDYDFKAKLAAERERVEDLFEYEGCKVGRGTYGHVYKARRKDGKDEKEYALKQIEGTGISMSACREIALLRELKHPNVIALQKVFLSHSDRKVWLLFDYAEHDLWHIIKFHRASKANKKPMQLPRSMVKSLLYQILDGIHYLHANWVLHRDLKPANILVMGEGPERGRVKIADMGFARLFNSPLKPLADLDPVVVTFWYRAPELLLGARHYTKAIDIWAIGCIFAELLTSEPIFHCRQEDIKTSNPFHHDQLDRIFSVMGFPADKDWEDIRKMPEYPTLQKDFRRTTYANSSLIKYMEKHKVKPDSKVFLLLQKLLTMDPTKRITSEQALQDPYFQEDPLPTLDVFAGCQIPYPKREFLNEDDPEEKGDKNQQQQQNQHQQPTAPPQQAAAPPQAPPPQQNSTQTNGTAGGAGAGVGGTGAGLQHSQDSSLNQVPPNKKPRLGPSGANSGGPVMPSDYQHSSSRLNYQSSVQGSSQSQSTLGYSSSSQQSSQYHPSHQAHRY
# Chain of CDK19 (P24863 whole entry partner): as the sequence (P24863 whole entry partner) above
compound,measurement,setting,value
Cn1nc(NC(=O)COc2ccc(-c3cnc4cnccn34)cn2)cc1C(F)(F)F [Example 9],IC50,[1],< 500 nM
Cc1ccc(NC(=O)CNc2ccc(-c3cnc4cnccn34)cc2)cc1C(F)(F)F [Example 15],IC50,[2],< 500 nM
Cc1cnc(NC(=O)COc2ccc(-c3cnc4ccccn34)cn2)cc1C(F)(F)F [Example 8],IC50,[3],< 500 nM
same,IC50,[4],< 500 nM
same,IC50,[5],< 500 nM
same,IC50,[6],< 500 nM
same,IC50,[7],< 500 nM
same,IC50,[8],< 500 nM
same,IC50,[1],< 500 nM
Cn1nc(NC(=O)C2(C(=O)Nc3ccc(-c4cnc5cnccn45)cc3)CC2)cc1C(F)(F)F [Example 21],IC50,[3],> 5000 nM
same,IC50,[4],< 500 nM
same,IC50,[5],< 500 nM
same,IC50,[6],> 5000 nM
same,IC50,[7],> 5000 nM
same,IC50,[8],> 5000 nM
Cn1nc(NC(=O)COc2ccc(-c3cnc4ccccn34)cn2)cc1C(F)(F)F [Example 1],"Inhibition of PDGFRβ signaling (PDGFRβ autophosphorylation and Shp2 phosphorylation, Western blot)",[9],able to inhibit PDGFRβ signaling
same,IC50,[2],< 500 nM
same,Activity compared to the imatinib and quizartinib controls (cell viability),[1],improved activity
Cc1ccc(NC(=O)COc2ccc(-c3cnc4cnccn34)c(F)n2)cc1C(F)(F)F [Example 7],IC50,[2],< 500 nM
Cc1ccc(NC(=O)COc2ccc(-c3cnc4ccccn34)cn2)cc1C(F)(F)F [Example 2],"Inhibition of PDGFRβ signaling (PDGFRβ autophosphorylation and Shp2 phosphorylation, Western blot)",[9],able to inhibit PDGFRβ signaling
same,IC50,[7],< 500 nM
same,IC50,[1],< 500 nM
O=C(Nc1ccc(-c2cnc3cnccn23)cc1)C1(C(=O)Nc2cc(C(F)(F)F)c(Cl)cn2)CC1 [Example 20],IC50,[3],> 5000 nM
same,IC50,[4],< 500 nM
same,IC50,[5],< 500 nM
same,IC50,[6],> 5000 nM
same,IC50,[7],> 5000 nM
same,IC50,[8],> 5000 nM
Cn1nc(NC(=O)C2(C(=O)Nc3ccc(-c4cnc5cnccn45)c(F)c3)CC2)cc1C(F)(F)F [Example 22],IC50,[3],> 5000 nM
same,IC50,[4],< 500 nM
same,IC50,[5],< 500 nM
same,IC50,[6],500 to 5000 nM
same,IC50,[7],> 5000 nM
same,IC50,[8],> 5000 nM
Cc1cnc(NC(=O)COc2ccc(-c3cnc4cnccn34)cn2)cc1C(F)(F)F [Example 3],IC50,[3],< 500 nM
same,IC50,[4],< 500 nM
same,IC50,[5],< 500 nM
same,IC50,[6],< 500 nM
same,IC50,[7],< 500 nM
same,IC50,[8],< 500 nM
same,Activity compared to the imatinib and quizartinib controls (cell viability),[1],improved activity
same,IC50,[1],< 500 nM

# — patent publication US20220315587A1, “COMPOUNDS FOR TREATMENT OF CANCER” (SINOPSEE THERAPEUTICS, priority 2019, published 2022)
